What was measured:
[1] = tested on: BHQ1-pre-let7a and EGFP-Lin28A bound complexes; assay: FRET assay, displacement of BHQ1-pre-let7a from EGFP-Lin28A; assay type: binding; conditions: at 1 μM; 19B-let7a at 100 nM
Procedure: This method was adapted from Roos et al (2016). HEK 293-T cells (ATCC) were cultured as monolayers in DMEM GlutaMAX™-1 (Cat #31966-021, Gibco®, Life Technologies) supplemented with 10% of FBS (fetal bovine serum). Stable EGFP-Lin28A HEK 293-T cells were cultured as monolayers in DMEM supplemented with 10% of FBS (fetal bovine serum) and 0.5 mg/ml Geneticin G418 (10131-035, Life Technologies). Transfections were performed according to the manufacturer's protocol with […] (12252-011, Invitrogen, Life Technologies) for siRNAs and JetPEI (101-10, Polyplus transfections) was used for plasmid DNA. […]
160,000 HEK 293 T cells were seeded per well in 6 well plates and transfected with 320 ng pEGFP-C2-Lin28A plasmid according to the experimental setup with the reagents described above and cells were allowed to recover for 48h. […] The EGFP-lin28A| expressing cells were sorted using Fluorescence Activated Cell Sorting (FACS). Finally, larger colonies of individual clones were analyzed for expression levels of EGFP-Lin28A by performing the FRET assay. […]
FRET system (EGFP-Lin28A and 19B-let7a) treated with DMSO was used as positive control. […] The FRET measurements were obtained from the optimized fluorescence parameter. […] The average signal intensity and background fluorescence were corrected with compound self-fluorescence with and without binding buffer.

YP-MEL NCM tumor = YP-MEL NCM tumor xenograft in SCID mice; assay type: in vivo; conditions: female SCID mice, 4 mg/kg I.P, every 2 days
Procedure: FIG. 13A&B: Female SCID YP-MEL NCM tumor bearing mice treated with 4 mg/kg Compound of formula (I) (P1 version) intraperitoneally (I.P). […] (B) Tumor areas were measured with a Vernier caliper (prior to each treatment cycle). Animals were euthanized when the control (0.1% DMSO:PBS) treated mice reached the defined endpoint of 225 mm^2. Data representative of at least 5 independent experiments.
All animal procedures were carried out in accordance with the guidelines of the Canadian Council on Animal Care and the NIH guidelines on the care and use of laboratory animals. All protocols were reviewed and approved by the Animal Care Committee of the University of Calgary (Protocol approval number: AC21-0147). Six- to eight-week-old female or male CB17 severe combined immunodeficiency (SCID) mice (Charles River Laboratories, Saint-Constant, QC, Canada) were subcutaneously injected in the right flank with 3×10^6 YP-MEL or NT-2 cells suspended in 0.1 mL sterile PBS. After tumor injection, animals with detectable tumor growth of at least 50 mm^2 were randomized into groups. […] Animals and respective cages were monitored for food and bedding supplies daily; doses were injected every 2 days and tumor areas were measured with a Vernier caliper (prior to each treatment cycle). […]

[2] = tested on: NT-2 testicular cancer cells; assay: Flow cytometric (propidium iodide) cell cycle analysis of NT-2 cells; assay type: cell-based; conditions: first 24h
Procedure: FIG. 9: NT-2, testicular cancer cells, were incubated with Compound of formula (I) isomers for 24h and subjected to Flow Cytometric analysis to determine the alterations in cancer cell cycle. […] Therefore, only the P1 isomer of Compound of formula (I) was investigated further to determine its in vitro and in vivo efficacy.
The method for Propidium Iodide (PI) based cell cycle analysis was performed as per the instructions given by the manufacturer (AB139418; Abcam). Briefly NT-2 cells treated with Compound of formula (I) versions were harvested in single cell suspensions with each experimental condition containing two million cells, fixed in 66% Ethanol overnight at 4° C. The ethanol was removed thoroughly by centrifugation, followed by rehydration of cells in PBS with a repeat of centrifugation. Cells were stained in PI (1%) and RNase solution (1%) in PBS for 30 minutes at 37° C. in the dark. The cells were analyzed immediately on the Flow Cytometer.

## CC[C@H](C)[C@H](NC(=O)[C@H](Cc1ncc[nH]1)NC(=O)c1cccc(C(N)=O)c1)C(=O)Nc1ccc(O)c(-c2nc3ccccc3s2)c1 [Compound P1]
[1]
  reduction in FRET: 70%
YP-MEL NCM tumor
  growth of NCM tumors: significantly reduced the growth
[2]
  share of total cell count that had undergone cell death: approximately 10%
